Test results as given in ChEMBL document CHEMBL3351946, “Design and synthesis of potent antitumor water-soluble phenyl N-mustard-benzenealkylamide conjugates via a bioisostere approach” (Eur J Med Chem, 2014).
Active and inactive are the calls of the source. No cut-off for these calls is given here.

Legend:
[1] = tested on: Mus musculus; assay: Toxicity in CD-1 (ICR) mouse assessed as gross lesions in spleen at 150 mg/kg, iv measured for 14 days; type: organism-based; parameters: dose 150 mg/kg, route intravenous; conditions: in vivo, 336 h
[2] = Antitumor activity against human HCT116 cells xenografted in nude mouse assessed as tumor growth inhibition at 30 mg/kg,iv qd administered for 6 days measured on day 31 relative to control; type: functional; conditions: HCT-116, iv, read-out: TGI
[3] = tested on: PC-3; assay: Antitumor activity against human PC3 cells xenografted in nude mouse assessed as survival at 50 mg/kg,iv administered every 2 days for 5 doses; type: functional, organism-based; parameters: dose 50 mg/kg
[4] = Cell cycle arrest in human HCT116 cells assessed as accumulation at G2/M phase at 4 uM after 24 hrs by FACS flow cytometric analysis (reference value: 31.55 +/- 4.63%); type: functional, cell-based; conditions: HCT-116
[5] = tested on: Mus musculus; assay: Toxicity in nude mouse xenografted with human PC3 cells assessed as change in body weight at 40 mg/kg,iv administered every 2 days for 5 doses measured on day 38 relative to control; type: organism-based, PC-3; parameters: dose 40 mg/kg; conditions: in vivo, 48 h
[6] = tested on: Mus musculus; assay: Toxicity in iv dosed CD-1 (ICR) mouse assessed as feces stain measured for 14 days; type: organism-based; conditions: in vivo, 336 h
[7] = Cell cycle arrest in human HCT116 cells assessed as accumulation at S phase at 4 uM after 48 hrs by FACS flow cytometric analysis (reference value: 12.11 +/- 4.28%); type: functional, cell-based; conditions: HCT-116
[8] = Cell cycle arrest in human HCT116 cells assessed as accumulation at G1 phase at 2 uM after 48 hrs by FACS flow cytometric analysis (reference value: 62.16 +/- 5.94%); type: functional, cell-based; conditions: HCT-116
[9] = Cell cycle arrest in human HCT116 cells assessed as accumulation at G1 phase at 4 uM after 72 hrs by FACS flow cytometric analysis (reference value: 76.29 +/- 2.65%); type: functional, cell-based; conditions: HCT-116
[10] = tested on: Mus musculus; assay: Toxicity in nude mouse xenografted with human HCT116 cells assessed as body weight loss at 30 mg/kg,iv qd administered for 6 days measured on day 13 relative to control; type: organism-based, HCT-116; parameters: dose 30 mg/kg; conditions: in vivo, 144 h
[11] = tested on: Mus musculus; assay: Toxicity in iv dosed CD-1 (ICR) mouse assessed as swelling of nose measured for 14 days; type: organism-based; conditions: in vivo, 336 h
[12] = tested on: CCRF-CEM; assay: Cytotoxicity against vinblastine-resistant human CCRF-CEM cells assessed as growth inhibition after 72 hrs by Alamar Blue assay; type: functional, cell-based
[13] = Cell cycle arrest in human HCT116 cells assessed as accumulation at S phase at 1 uM after 24 hrs by FACS flow cytometric analysis (reference value: 18.71 +/- 2.25%); type: functional, cell-based; conditions: HCT-116
[14] = Cell cycle arrest in human HCT116 cells assessed as accumulation at G1 phase at 1 uM after 24 hrs by FACS flow cytometric analysis (reference value: 48.75 +/- 3.69%); type: functional, cell-based; conditions: HCT-116
[15] = Cytotoxicity against human PC3 cells assessed as growth inhibition after 72 hrs by Alamar Blue assay; type: functional, cell-based; conditions: PC-3, 72 h
[16] = Cell cycle arrest in human HCT116 cells assessed as accumulation at G1 phase at 2 uM after 24 hrs by FACS flow cytometric analysis (reference value: 48.75 +/- 3.69%); type: functional, cell-based; conditions: HCT-116
[17] = Cell cycle arrest in human HCT116 cells assessed as accumulation at S phase at 4 uM after 72 hrs by FACS flow cytometric analysis (reference value: 7.49 +/- 0.95%); type: functional, cell-based; conditions: HCT-116
[18] = Antitumor activity against human PC3 cells xenografted in nude mouse assessed as tumor growth inhibition at 50 mg/kg,iv administered every 2 days for 5 doses measured on day 38 relative to control; type: functional; conditions: PC-3, iv, read-out: TGI
[19] = Cell cycle arrest in human HCT116 cells assessed as accumulation at sub-G1 phase at 2 uM after 72 hrs by FACS flow cytometric analysis (reference value: 3.29 +/- 1.39%); type: functional, cell-based; conditions: HCT-116
[20] = Toxicity in iv dosed CD-1 (ICR) mouse measured for 14 days; type: organism-based; conditions: in vivo
[21] = Antitumor activity against human H460 cells xenografted in nude mouse assessed as tumor growth inhibition at 30 mg/kg,iv qd administered for 6 days measured on day 37 relative to control; type: functional; conditions: NCI-H460, iv, read-out: TGI
[22] = tested on: Mus musculus; assay: Toxicity in nude mouse xenografted with human PC3 cells assessed as change in body weight at 50 mg/kg,iv administered every 2 days for 5 doses measured on day 38 relative to control; type: organism-based, PC-3; parameters: dose 50 mg/kg; conditions: in vivo, 48 h
[23] = Antitumor activity against human H460 cells xenografted in nude mouse assessed as tumor growth inhibition at 30 mg/kg,iv qd administered for 6 days measured on day 19 to 26 relative to control; type: functional, NCI-H460
[24] = Antitumor activity against human PC3 cells xenografted in nude mouse assessed as tumor growth inhibition at 30 mg/kg,iv qd administered for 6 days measured on day 38 relative to control; type: functional; conditions: PC-3, iv, read-out: TGI
[25] = Cell cycle arrest in human HCT116 cells assessed as accumulation at S phase at 1 uM after 72 hrs by FACS flow cytometric analysis (reference value: 7.49 +/- 0.95%); type: functional, cell-based; conditions: HCT-116
[26] = Cell cycle arrest in human HCT116 cells assessed as accumulation at sub-G1 phase at 2 uM after 24 hrs by FACS flow cytometric analysis (reference value: 1.37 +/- 0.95%); type: functional, cell-based; conditions: HCT-116
[27] = Cell cycle arrest in human HCT116 cells assessed as accumulation at S phase at 1 uM after 48 hrs by FACS flow cytometric analysis (reference value: 12.11 +/- 4.28%); type: functional, cell-based; conditions: HCT-116
[28] = Cell cycle arrest in human HCT116 cells assessed as accumulation at sub-G1 phase at 1 uM after 48 hrs by FACS flow cytometric analysis (reference value: 1.65 +/- 0.06%); type: functional, cell-based; conditions: HCT-116
[29] = Cell cycle arrest in human HCT116 cells assessed as accumulation at G1 phase at 4 uM after 48 hrs by FACS flow cytometric analysis (reference value: 62.16 +/- 5.94%); type: functional, cell-based; conditions: HCT-116
[30] = tested on: HT-29; assay: Cytotoxicity against human HT-29 cells assessed as growth inhibition after 72 hrs by Alamar Blue assay; type: functional, cell-based; conditions: HT-29, 72 h
[31] = Cell cycle arrest in human HCT116 cells assessed as accumulation at G2/M phase at 4 uM after 72 hrs by FACS flow cytometric analysis (reference value: 12.82 +/- 2.19%); type: functional, cell-based; conditions: HCT-116
[32] = tested on: PC-3; assay: Antitumor activity against human PC3 cells xenografted in iv dosed nude mouse assessed as tumor growth inhibition; type: functional, organism-based
[33] = Terminal half life in Sprague-Dawley rat at 5 mg/kg, iv; type: ADME, organism-based; parameters: dose 5 mg/kg, route intravenous; conditions: in vivo, read-out: beta t1/2 (converted)
[34] = Cytotoxicity against human H3347 cells assessed as growth inhibition after 72 hrs by Alamar Blue assay; type: functional, cell-based; conditions: H3347, 72 h
[35] = Antitumor activity against human H3347 cells xenografted in nude mouse assessed as tumor growth inhibition at 30 mg/kg,iv qd administered for 6 days measured on day 31 relative to control; type: functional; conditions: read-out: TGI
[36] = tested on: Mus musculus; assay: Toxicity in CD-1 (ICR) mouse assessed as decrease in food consumption at 75 to 105 mg/kg, iv measured on day 8; type: organism-based; parameters: dose 75-105 mg/kg, route intravenous; conditions: in vivo
[37] = tested on: Mus musculus; assay: Toxicity in nude mouse xenografted with human PC3 cells assessed as body weight loss at 50 mg/kg,iv administered every 2 days for 5 doses measured on day 16 relative to control; type: organism-based, PC-3; parameters: dose 50 mg/kg; conditions: in vivo, 48 h

## CCN(CC)CC(=O)Nc1ccc(NC(=O)Nc2ccc(N(CCCl)CCCl)cc2)cc1
[1]
  Activity: Toxic
[2]
  inhibition in vivo at 30 mg/kg: 84%
[3]
  Activity: Active
[4]
  Activity: 56.3%
[5]
  Activity: -12%
[6]
  Activity: Dose-dependent effect
[7]
  Activity: 16.6%
[8]
  Activity: 49.5%
[9]
  Activity: 18.1%
[10]
  body weight change relative to control: -5%
[11]
  Activity: Dose-dependent effect
[12]
  IC50: 2160 nM
[13]
  Activity: 18.7%
[14]
  Activity: 17.3%
[15]
  IC50: 3570 nM
[16]
  Activity: 11.8%
[17]
  Activity: 19.8%
[18]
  inhibition in vivo at 50 mg/kg: 62%
[19]
  Activity: 19.7%
[20]
  LD50 at 336 h: 115 mg/kg
[21]
  inhibition in vivo at 30 mg/kg: 53%
[22]
  Activity: -8%
[23]
  %max: 61%
[24]
  inhibition in vivo at 30 mg/kg: 16%
[25]
  Activity: 11.7%
[26]
  Activity: 1.55%
[27]
  Activity: 11.9%
[28]
  Activity: 9.86%
[29]
  Activity: 19%
[30]
  IC50: 19000 nM
[31]
  Activity: 41.4%
[32]
  TGI: Dose-dependent effect
[33]
  half-life: 21.6 min
[34]
  IC50: 870 nM
[35]
  inhibition in vivo at 30 mg/kg: 90%
[36]
  Activity: Toxic
[37]
  %max: -16%
